# Laboratory results published in US20110124715A1, “Antiviral Oligonucleotides Having a Conserved G4 Core Sequence” (priority 1992, published 2011).
# Values joined by “and” are separate entries in the source; they are usually repeats but may differ in a detail not shown here. Identical values can stand only once. Strand notation (5' to 3'): a small letter for the sugar, then the base; units joined by * are phosphorothioate-linked, units joined directly phosphodiester-linked; [ ] holds rarer units or linkages, { } end groups; capitals alone tell only the bases. d = 2'-deoxy (DNA)
# Target: T1, human type II phospholipase A2 (Homo sapiens, UniProt P14555)
# T1 sequence (P14555 21-144): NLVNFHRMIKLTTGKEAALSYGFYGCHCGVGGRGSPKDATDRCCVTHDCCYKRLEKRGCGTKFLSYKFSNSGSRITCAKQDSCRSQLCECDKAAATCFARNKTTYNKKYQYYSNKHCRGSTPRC
# Assay: Phospholipase A2 assay, 3H-oleic acid labelled E. coli substrate
# Assay type: biochemical
# Settings: 1 μM
row,Substance,inhibition of enzyme activity
1,GTGGAGGAGAGCAGTAGAAGG (dG*dT*dG*dG*dA*dG*dG*dA*dG*dA*dG*dC*dA*dG*dT*dA*dG*dA*dA*dG*dG) [ISIS 3477],54.7%
2,GGG T GGG T ATA G AAG G GCT CC (GGGTGGGTATAGAAGGGCTCC; chemistry not given here) [ISIS 3196],completely inhibited

# Same assay, conditions: Table 4; 1 μM
row,Substance,% Inhibition (1 μM)
1,3475 (dT*dC*dT*dC*dA*dT*dT*dC*dT*dG*dG*dG*dT*dG*dG*dG*dT*dA*dT*dA*dG) [compound 3475],67.0%
2,3679 (dA*dG*dT*dA*dG*dG*dC*dC*dT*dG*dG*dA*dA*dG*dG*dA*dA*dA*dT*dT*dT) [compound 3679],30.3%
3,3480 (dT*dT*dG*dC*dT*dT*dT*dA*dT*dT*dC*dA*dG*dA*dA*dG*dA*dG*dA*dC*dC) [compound 3480],24.5%
4,3473 (dC*dT*dG*dC*dC*dT*dG*dG*dC*dC*dT*dC*dT*dA*dG*dG*dA*dT*dG*dG*dG) [compound 3473],25.9%
5,3628 (dG*dG*dA*dG*dC*dC*dC*dT*dT*dC*dT*dA*dT*dA*dC*dC*dC*dA*dC*dC*dC) [compound 3628],13.6%
6,3192 (dG*dG*dA*dA*dG*dG*dT*dT*dT*dC*dC*dA*dG*dG*dG*dA*dA*dG*dA*dG*dG) [compound 3192],28.1%
7,3632 (dC*dC*dA*dG*dG*dA*dG*dA*dG*dG*dT*dC*dG*dG*dT*dA*dA*dG*dG*dC*dG) [compound 3632],29.2%
8,3669 (dG*dG*dT*dG*dA*dC*dA*dA*dA*dT*dG*dC*dA*dG*dA*dT*dG*dG*dA*dC*dT) [compound 3669],34.7%
9,3671 (dT*dA*dG*dG*dA*dG*dG*dG*dT*dC*dT*dT*dC*dA*dT*dG*dG*dT*dA*dA*dG) [compound 3671],49.3%
10,3478 (dT*dG*dG*dT*dT*dA*dA*dG*dC*dA*dC*dG*dG*dA*dG*dT*dT*dG*dA*dG*dG) [compound 3478],26.4%
11,3697 (dA*dC*dT*dC*dT*dT*dA*dC*dC*dA*dC*dA*dG*dG*dT*dG*dA*dT*dT*dC*dT) [compound 3697],39%
12,3712 (dA*dG*dG*dA*dG*dT*dC*dC*dT*dG*dT*dT*dT*dT*dG*dA*dA*dA*dT*dC*dA) [compound 3712],31.8%
13,3694 (dA*dC*dA*dG*dC*dA*dG*dC*dT*dG*dT*dG*dA*dG*dG*dA*dG*dA*dC*dA*dC) [compound 3694],28.2%
14,3184 (antisense dT*dT*dC*dA*dT*dG*dG*dT*dA*dA*dG*dA*dG*dT*dT*dC*dT*dT*dG*dG*dG) [compound 3184],25.1%
15,3471 (dA*dA*dG*dG*dA*dA*dC*dT*dT*dG*dG*dT*dT*dA*dG*dG*dG*dT*dA*dG*dG) [compound 3471],34.5%
16,3468 (dG*dG*dG*dA*dC*dT*dC*dA*dG*dC*dA*dA*dC*dG*dA*dG*dG*dG*dG*dT*dG) [compound 3468],97.5%
17,3481 (dT*dT*dT*dT*dT*dG*dA*dT*dT*dT*dG*dC*dT*dA*dA*dT*dT*dG*dC*dT*dT) [compound 3481],2.2%

# Same assay, conditions: Table 5; 1 μM; two separate experiments
row,Substance,% Inhibition (1 μM)
1,4957 (dG*dG*dG*dT*dG*dG*dA*dT*dA*dT*dA*dG) [compound 4957],81.9%
2,4672 (dG*dG*dG*dT*dG*dG*dG*dT*dA*dT*dA*dG) [compound 4672],73.9% and 94.6%
3,4955 (dG*dG*dG*dA*dG*dG*dG*dT*dA*dT*dA*dG) [compound 4955],97.5%
4,4946 (dG*dG*dG*dT*dG*dG*dG*dA*dA*dT*dA*dG) [compound 4946],73.2%

# Same assay, conditions: b86; fold higher
row,Substance,I.C.50 relative to ISIS 3196
1,3628 (dG*dG*dA*dG*dC*dC*dC*dT*dT*dC*dT*dA*dT*dA*dC*dC*dC*dA*dC*dC*dC) [compound 3628],approximately 10 fold

# Same assay, conditions: boiling water for 15 minutes prior to addition to the assay
row,Substance,inhibition
1,GGG T GGG T ATA G AAG G GCT CC (GGGTGGGTATAGAAGGGCTCC; chemistry not given here) [ISIS 3196],21%

# Same assay, conditions: increasing amounts of E. coli substrate; ISIS 3481 at 0.2 μM and 2 μM
row,Substance,effect on substrate kinetics
1,GGG T GGG T ATA G AAG G GCT CC (GGGTGGGTATAGAAGGGCTCC; chemistry not given here) [ISIS 3196],apparent noncompetitive inhibitor
2,TTTTTGATTTGCTAATTGCTT (dT*dT*dT*dT*dT*dG*dA*dT*dT*dT*dG*dC*dT*dA*dA*dT*dT*dG*dC*dT*dT) [ISIS 3481],did not modify the substrate kinetics

# Same assay, conditions: native, not boiled
row,Substance,inhibition
1,GGG T GGG T ATA G AAG G GCT CC (GGGTGGGTATAGAAGGGCTCC; chemistry not given here) [ISIS 3196],94%
